Data reported in US9682060B2, “Small molecules that induce intrinsic pathway apoptosis” (The Board of Trustees of the University of Illinois, priority 2015, dated 2017).
“Also recorded” adds a separate entry of the source.

Columns and labels:
[1] = tested on: isolated mitochondria (U-937 cells); test: In vitro cytochrome c release from isolated mitochondria; format: biochemical, Human; conditions: respiring and non-respiring conditions, 30 min, Western blot
Experimental: In Vitro Cytochrome c Release from Isolated Mitochondria.
U-937 cells (120×10^6) were washed twice in PBS and resuspended in 800 μL ice-cold lysis buffer (50 mM HEPES, 5 mM DTT, 5 mM PMSF, 25 mM MgCl2, protease cocktail inhibitor, pH 7.5) and the cells were passed through a 26 gauge needle 26 times using a 1 mL syringe until >95% cells were lysed as determined by trypan blue. Isolation buffer (0.25 M sucrose in lysis buffer pH 7.5) was added to the lysed cells (2.4 mL) and mixed by inversion. Debris was removed by centrifugation (500×g. 10 min at 4° C.) and the mitochondria in the supernatant were pelleted by centrifugation (10000×g, 5 min at 4° C.). The mitochondrial pellet was resuspended in washing buffer (2 mL of 50 mM HEPES, 250 mM KCl, 25 mM EDTA, pH 7.5) and incubated on ice for 2 min and centrifuged (12500×g, 5 min). The mitochondrial pellet was resuspended in either non-respiration (300 μL of 50 mM HEPES, 5 mM DTT, 5 mM PMSF, 25 mM MgCl2, protease inhibitor, 250 mM KCl, 25 mM EDTA, pH 7.5) or respiration buffer (300 μL of 50 mM HEPES, […], 5 mM ATP, 0.4 mM ADP, 25 mM sodium succinate, 10 mM potassium phosphate dibasic, pH 7.5). […]

MCF10A = test: Raptinal toxicity in various cell lines, 24 hour IC50; format: cell-based; conditions: MCF-10A; MCF10A (Human Breast Tissue); 24 hour incubation; mean ± SD
[2] = tested on: adherent cell lines (HOS, H1993, SK-MEL-5, MIA PaCa-2); test: Adherent cell lines: cell death by AV/PI staining and immunoblots; format: cell-based, Human; conditions: HOS, H1993, SK-MEL-5, MIA PaCa-2, 10 μM
HFF-1 = test: Raptinal toxicity in various cell lines, 24 hour IC50; format: cell-based; conditions: HFF-1 (Human Foreskin Fibroblast); 24 hour incubation; mean ± SD
HL-60 cells = test: High-throughput cell death screen (MTS); format: cell-based, human; conditions: 1 μM, 24 hours
Experimental: High-Throughput Cell Death Screen.
HL-60 cells were plated into 384 well plates (50 μL of 2×10^6 cells/mL per well) in RPMI cell culture media. Library compounds were transferred using a 384-pin transfer apparatus (V & P Scientific, San Diego) which transferred 0.1 μL from 10 mM DMSO stock solutions to achieve a final concentration of 20 μM. Controls containing DMSO only and 10 μM etoposide were used to serve as live and dead controls respectively. The cells were incubated for 24 hours.

SKW 6.4 cells = test: Immunoblotting of caspase activation; format: cell-based, Human; conditions: 10 μM
Experimental: U-937 cells (3×10^6 cells in 2 mL RPMI) or SKW 6.4 cells (5×10^6 cells in 2 mL RPMI) were treated with compound (1% final DMSO v/v) for the appropriate period of time. After centrifugation and washing with PBS, cells were lysed with RIPA lysis buffer containing protease cocktail inhibitor III (Calbiochem) and cell debris removed by centrifugation (16000×g 5 min). The lysate concentrations were normalized after determination of protein concentration by the Bradford assay and whole cell lysate (40-60 μg) was resolved by 4-20% gradient SDS-PAGE gel electrophoresis at 120 V for 70 min after which proteins were transferred onto PVDF membranes (60 V for 2 hours) and blocked in 5% BSA or fat-free milk in TBST (as per primary antibody manufacturer's instructions) overnight at 4° C. The membranes were blotted for molecules of interest with primary antibody (1:1000 in 5% BSA or milk in TBST) overnight at 4° C. The bound primary antibodies were detected using appropriate secondary HRP conjugated antibodies (1:5000 in TBST) for 1 hour at room temperature and visualized by ECL autoradiography or with an Image Quant LAS 4010. The membranes were stripped in acidic methanol, blocked and re-probed as necessary.

U-937 = test: Raptinal toxicity, 24 hour IC50 (MTS assay for suspension cells); format: cell-based; conditions: U-937 (Human Lymphoma); 24 hour incubation; mean ± SD
Experimental: (§1) MTS Assay for Suspension Cells.
(§2) Serial dilutions of compound in 100% DMSO were added in triplicate (2 μL to each well) to empty wells of a 96-well plate. Suspension cells (HL-60, U-937, SKW 6.4, Jurkat W T, Jurkat CASP8^−/−, Jurkat FADD^−/−, Jurkat Bcl-2) cells in RPMI 1640 media were added to 96-well plates (198 μL containing 4×10^4 cells) and the cells incubated for 24 hours.

Jurkat = test: as above; format: cell-based; conditions: Jurkat (Human Leukemia); 24 hour incubation; mean ± SD
Experimental: as §1, §2

SKW 6.4 = test: as above; format: cell-based; conditions: SKW 6.4 (Human Lymphoma); 24 hour incubation; mean ± SD
Experimental: as §1, §2

HL-60 = test: as above; format: cell-based; conditions: HL-60 (Human Leukemia); 24 hour incubation; mean ± SD
Experimental: as §1, §2

in vitro = conditions: human, U-937 cells

O=CC1(C2(C=O)c3ccccc3-c3ccccc32)c2ccccc2-c2ccccc21 [Raptinal, [9,9′]bifluorenyl-9,9′-dicarbaldehyde]
cytochrome c release from isolated mitochondria [1]: does not induce cytochrome c release; also recorded: did not directly induce cytochrome c release
IC50 (MCF10A): 3000 ± 200 nM
speed of cell death induction versus 1541B and staurosporine ([2]; AV/PI): substantially faster than the other agents
procaspase-3 activation and PARP-1 cleavage within 2 hours ([2]; immunoblots): the only agent capable of activating procaspase-3 and inducing subsequent PARP-1 cleavage within 2 hours
IC50 (HFF-1): 3300 ± 200 nM
cell death in retest of screen hits (HL-60 cells): quantitative cell death
time of activation of initiator caspase-9 (SKW 6.4 cells): 20 min
time to complete cleavage of procaspase-9, procaspase-8 and procaspase-3 (SKW 6.4 cells): ≤ 45 min
procaspase-3 activation (immunoblot) (SKW 6.4 cells; one hour of exposure): the only agent capable of inducing procaspase-3 activation
IC50 (U-937): 700 ± 300 nM
IC50 (Jurkat): 2700 ± 900 nM
IC50 (SKW 6.4): 1100 ± 100 nM
IC50 (HL-60): 2100 ± 1400 nM
cytotoxicity at 2 h, 10 µM (in vitro): ~80%
